In article PMC10905675, “INX-315, a Selective CDK2 Inhibitor, Induces Cell Cycle Arrest and Senescence in Solid Tumors” (Cancer Discovery, 2023):

Experiments:
Assay in all cases: SelectScreen LanthaScreen Binding
Settings in all cases: INX-0315 at 100nM
HUNK = target: T1, HUNK (Homo sapiens, UniProt P57058)
T1 construct: purchased Thermo Fisher Scientific SelectScreen (plus Nanosyn / Reaction Biology for CDK/cyclin lines)
Procedure, shortened: (§1)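 Both platform types ran at predefined settings. Inhibitor was applied first at 100 nmol/L (1% DMSO), later in ten-point titrations spanning 1 µmol/L to 0.0495 nmol/L.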

[1] = target: T2, MAP2K6 (MKK6) S207E T211E (Homo sapiens, UniProt P52564, S207E/T211E)
T2 construct: purchased Thermo Fisher Scientific SelectScreen (plus Nanosyn / Reaction Biology for CDK/cyclin lines)
Procedure, shortened: as §1

PLK4 = target: T3, PLK4 (Homo sapiens, UniProt O00444)
T3 construct: purchased Thermo Fisher Scientific SelectScreen (plus Nanosyn / Reaction Biology for CDK/cyclin lines)
Procedure, shortened: as §1

CDK8/cyclin C = target: T4, CDK8/cyclin C (Homo sapiens, UniProt P49336)
T4 construct: purchased Thermo Fisher Scientific SelectScreen (plus Nanosyn / Reaction Biology for CDK/cyclin lines)
Procedure, shortened: as §1

MAPK9 (JNK2) = target: T5, MAPK9 (JNK2) (Homo sapiens, UniProt P45984)
T5 construct: purchased Thermo Fisher Scientific SelectScreen (plus Nanosyn / Reaction Biology for CDK/cyclin lines)
T5 sequence (P45984 whole entry): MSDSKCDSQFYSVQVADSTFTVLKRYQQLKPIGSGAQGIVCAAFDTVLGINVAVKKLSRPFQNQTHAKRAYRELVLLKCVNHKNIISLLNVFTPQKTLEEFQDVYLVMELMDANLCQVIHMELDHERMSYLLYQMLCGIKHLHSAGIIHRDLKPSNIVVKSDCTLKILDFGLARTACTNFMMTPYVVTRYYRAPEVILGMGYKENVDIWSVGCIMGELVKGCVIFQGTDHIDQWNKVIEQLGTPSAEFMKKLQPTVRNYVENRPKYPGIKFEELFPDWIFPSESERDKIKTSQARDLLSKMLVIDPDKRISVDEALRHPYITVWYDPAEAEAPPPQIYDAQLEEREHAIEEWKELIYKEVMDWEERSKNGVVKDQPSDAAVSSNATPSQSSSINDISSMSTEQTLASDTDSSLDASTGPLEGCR
Procedure, shortened: as §1

CDK9/cyclin K = target: T6, CDK9/cyclin K (Homo sapiens, UniProt P50750)
T6 construct: purchased Thermo Fisher Scientific SelectScreen (plus Nanosyn / Reaction Biology for CDK/cyclin lines)
Procedure, shortened: as §1

RAF1 (cRAF) Y340D Y341D = target: T7, RAF1 (cRAF) Y340D Y341D (Homo sapiens, UniProt P04049, Y340D/Y341D)
T7 construct: purchased Thermo Fisher Scientific SelectScreen (plus Nanosyn / Reaction Biology for CDK/cyclin lines)
Procedure, shortened: as §1

CDK3/cyclin E1 = target: T8, CDK3/cyclin E1 (Homo sapiens, UniProt Q00526)
T8 construct: purchased BPS 40103
Procedure, shortened: as §1

MAPK8 (JNK1) = target: T9, MAPK8 (JNK1) (Homo sapiens, UniProt P45983)
T9 construct: purchased Thermo Fisher Scientific SelectScreen (plus Nanosyn / Reaction Biology for CDK/cyclin lines)
Procedure, shortened: as §1

MLCK (MLCK2) = target: T10, MLCK (MLCK2) (Homo sapiens, UniProt Q32MK0)
T10 construct: purchased Thermo Fisher Scientific SelectScreen (plus Nanosyn / Reaction Biology for CDK/cyclin lines)
Procedure, shortened: as §1

MERTK (cMER) A708S = target: T11, MERTK (cMER) A708S (Homo sapiens, UniProt Q12866, A708S)
T11 construct: purchased Thermo Fisher Scientific SelectScreen (plus Nanosyn / Reaction Biology for CDK/cyclin lines)
Procedure, shortened: as §1

PKN2 (PRK2) = target: T12, PKN2 (PRK2) (Homo sapiens, UniProt Q16513)
T12 construct: purchased Thermo Fisher Scientific SelectScreen (plus Nanosyn / Reaction Biology for CDK/cyclin lines)
Procedure, shortened: as §1

TESK2 = target: T13, TESK2 (Homo sapiens, UniProt Q96S53)
T13 construct: purchased Thermo Fisher Scientific SelectScreen (plus Nanosyn / Reaction Biology for CDK/cyclin lines)
Procedure, shortened: as §1

TNIK = target: T14, TNIK (Homo sapiens, UniProt Q9UKE5)
T14 construct: purchased Thermo Fisher Scientific SelectScreen (plus Nanosyn / Reaction Biology for CDK/cyclin lines)
Procedure, shortened: as §1

EPHA6 = target: T15, EPHA6 (Homo sapiens, UniProt Q9UF33)
T15 construct: purchased Thermo Fisher Scientific SelectScreen (plus Nanosyn / Reaction Biology for CDK/cyclin lines)
Procedure, shortened: as §1

PRKACG (PRKAC gamma) = target: T16, PRKACG (PRKAC gamma) (Homo sapiens, UniProt P22612)
T16 construct: purchased Thermo Fisher Scientific SelectScreen (plus Nanosyn / Reaction Biology for CDK/cyclin lines)
Procedure, shortened: as §1

CDK11/cyclin C = target: T17, CDK11/cyclin C (Homo sapiens, UniProt Q9BWU1)
T17 construct: purchased Thermo Fisher Scientific SelectScreen (plus Nanosyn / Reaction Biology for CDK/cyclin lines)
T17 sequence (Q9BWU1 whole entry): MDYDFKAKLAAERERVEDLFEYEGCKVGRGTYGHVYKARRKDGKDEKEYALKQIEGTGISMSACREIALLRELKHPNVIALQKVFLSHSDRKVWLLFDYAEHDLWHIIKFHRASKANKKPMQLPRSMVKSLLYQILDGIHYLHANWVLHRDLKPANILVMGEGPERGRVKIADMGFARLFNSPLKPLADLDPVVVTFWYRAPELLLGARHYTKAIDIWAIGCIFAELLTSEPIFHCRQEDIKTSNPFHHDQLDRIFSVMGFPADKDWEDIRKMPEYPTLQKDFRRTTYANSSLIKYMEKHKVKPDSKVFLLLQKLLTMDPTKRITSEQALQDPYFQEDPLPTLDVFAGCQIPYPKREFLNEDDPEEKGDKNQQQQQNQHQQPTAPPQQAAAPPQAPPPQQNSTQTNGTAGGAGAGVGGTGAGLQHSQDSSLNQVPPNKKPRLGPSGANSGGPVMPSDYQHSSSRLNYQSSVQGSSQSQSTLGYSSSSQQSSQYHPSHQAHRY
T17 sequence (P24863 whole entry partner): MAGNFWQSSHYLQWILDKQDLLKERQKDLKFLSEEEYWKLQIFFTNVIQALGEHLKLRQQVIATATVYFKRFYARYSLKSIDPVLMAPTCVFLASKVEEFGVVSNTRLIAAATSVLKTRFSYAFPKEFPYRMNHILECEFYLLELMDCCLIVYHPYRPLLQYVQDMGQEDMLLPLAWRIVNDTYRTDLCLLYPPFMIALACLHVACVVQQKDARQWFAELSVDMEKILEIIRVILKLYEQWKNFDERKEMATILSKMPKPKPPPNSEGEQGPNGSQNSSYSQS
Procedure, shortened: as §1

STK32C (YANK3) = target: T18, STK32C (YANK3) (Homo sapiens, UniProt Q86UX6)
T18 construct: purchased Thermo Fisher Scientific SelectScreen (plus Nanosyn / Reaction Biology for CDK/cyclin lines)
Procedure, shortened: as §1

DDR1 = target: T19, DDR1 (Homo sapiens, UniProt Q08345)
T19 construct: purchased Thermo Fisher Scientific SelectScreen (plus Nanosyn / Reaction Biology for CDK/cyclin lines)
T19 sequence (Q08345 19-913): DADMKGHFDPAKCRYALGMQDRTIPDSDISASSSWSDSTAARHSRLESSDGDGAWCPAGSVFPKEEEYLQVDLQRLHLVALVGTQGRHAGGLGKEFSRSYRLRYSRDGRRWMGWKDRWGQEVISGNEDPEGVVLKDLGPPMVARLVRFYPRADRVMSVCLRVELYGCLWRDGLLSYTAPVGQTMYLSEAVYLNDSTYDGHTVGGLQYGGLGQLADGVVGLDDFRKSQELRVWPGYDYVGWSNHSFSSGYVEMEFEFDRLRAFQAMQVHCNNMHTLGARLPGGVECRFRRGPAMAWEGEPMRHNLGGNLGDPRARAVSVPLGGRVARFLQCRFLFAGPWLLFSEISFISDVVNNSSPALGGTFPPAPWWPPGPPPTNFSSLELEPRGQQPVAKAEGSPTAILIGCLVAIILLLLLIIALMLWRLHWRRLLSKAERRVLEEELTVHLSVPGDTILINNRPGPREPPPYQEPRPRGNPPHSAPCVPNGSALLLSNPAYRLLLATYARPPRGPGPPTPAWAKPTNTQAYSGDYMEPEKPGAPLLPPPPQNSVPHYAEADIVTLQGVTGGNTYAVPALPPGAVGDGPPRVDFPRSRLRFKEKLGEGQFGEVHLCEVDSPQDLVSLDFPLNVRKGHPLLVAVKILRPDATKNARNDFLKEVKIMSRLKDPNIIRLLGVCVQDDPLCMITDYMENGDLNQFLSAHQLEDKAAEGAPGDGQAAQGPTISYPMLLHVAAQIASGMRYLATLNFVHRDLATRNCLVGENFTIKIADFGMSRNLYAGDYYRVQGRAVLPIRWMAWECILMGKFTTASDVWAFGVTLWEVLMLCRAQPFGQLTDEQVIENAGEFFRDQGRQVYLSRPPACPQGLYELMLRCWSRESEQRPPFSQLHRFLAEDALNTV
Procedure, shortened: as §1

EPHA3 = target: T20, EPHA3 (Homo sapiens, UniProt P29320)
T20 construct: purchased Thermo Fisher Scientific SelectScreen (plus Nanosyn / Reaction Biology for CDK/cyclin lines)
Procedure, shortened: as §1

STK17A (DRAK1) = target: T21, STK17A (DRAK1) (Homo sapiens, UniProt Q9UEE5)
T21 construct: purchased Thermo Fisher Scientific SelectScreen (plus Nanosyn / Reaction Biology for CDK/cyclin lines)
Procedure, shortened: as §1

STK33 = target: T22, STK33 (Homo sapiens, UniProt Q9BYT3)
T22 construct: purchased Thermo Fisher Scientific SelectScreen (plus Nanosyn / Reaction Biology for CDK/cyclin lines)
Procedure, shortened: as §1

ALK T1151_L1152insT = target: T23, ALK T1151_L1152insT (Homo sapiens, UniProt Q9UM73, INS1151T)
T23 construct: purchased Thermo Fisher Scientific SelectScreen (plus Nanosyn / Reaction Biology for CDK/cyclin lines)
Procedure, shortened: as §1

CDK2/cyclin E1 = target: T24, CDK2/cyclin E1 (Homo sapiens, UniProt P24941)
T24 construct: purchased Millipore 14-475
Procedure, shortened: as §1

MAP4K1 (HPK1) = target: T25, MAP4K1 (HPK1) (Homo sapiens, UniProt Q92918)
T25 construct: purchased Thermo Fisher Scientific SelectScreen (plus Nanosyn / Reaction Biology for CDK/cyclin lines)
Procedure, shortened: as §1

MAP3K11 (MLK3) = target: T26, MAP3K11 (MLK3) (Homo sapiens, UniProt Q16584)
T26 construct: purchased Thermo Fisher Scientific SelectScreen (plus Nanosyn / Reaction Biology for CDK/cyclin lines)
T26 sequence (Q16584 whole entry): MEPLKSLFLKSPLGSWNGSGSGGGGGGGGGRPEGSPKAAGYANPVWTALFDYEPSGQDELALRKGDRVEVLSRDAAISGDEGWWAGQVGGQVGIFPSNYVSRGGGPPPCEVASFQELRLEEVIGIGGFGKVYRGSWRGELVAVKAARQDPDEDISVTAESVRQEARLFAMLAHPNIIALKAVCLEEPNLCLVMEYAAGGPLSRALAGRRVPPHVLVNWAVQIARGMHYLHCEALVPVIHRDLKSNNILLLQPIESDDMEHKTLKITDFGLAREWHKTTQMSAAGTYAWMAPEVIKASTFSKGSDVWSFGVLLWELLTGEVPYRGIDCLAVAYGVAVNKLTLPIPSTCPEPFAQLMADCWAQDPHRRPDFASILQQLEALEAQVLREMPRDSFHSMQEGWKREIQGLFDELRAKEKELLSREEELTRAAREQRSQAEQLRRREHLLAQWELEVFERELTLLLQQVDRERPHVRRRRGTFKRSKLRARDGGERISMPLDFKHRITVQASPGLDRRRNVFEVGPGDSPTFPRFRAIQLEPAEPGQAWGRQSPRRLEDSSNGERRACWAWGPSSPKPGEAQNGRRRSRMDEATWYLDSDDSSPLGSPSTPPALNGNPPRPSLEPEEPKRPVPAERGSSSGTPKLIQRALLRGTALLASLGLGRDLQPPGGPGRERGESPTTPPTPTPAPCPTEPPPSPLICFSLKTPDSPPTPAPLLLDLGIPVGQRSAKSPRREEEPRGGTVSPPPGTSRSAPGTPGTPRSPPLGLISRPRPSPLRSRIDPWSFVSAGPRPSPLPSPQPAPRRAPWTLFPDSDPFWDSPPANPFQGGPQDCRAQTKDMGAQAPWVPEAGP
Procedure, shortened: as §1

MAP3K5 (ASK1) = target: T27, MAP3K5 (ASK1) (Homo sapiens, UniProt Q99683)
T27 construct: purchased Thermo Fisher Scientific SelectScreen (plus Nanosyn / Reaction Biology for CDK/cyclin lines)
Procedure, shortened: as §1

AXL R499C = target: T28, AXL R499C (Homo sapiens, UniProt P30530, R499C)
T28 construct: purchased Thermo Fisher Scientific SelectScreen (plus Nanosyn / Reaction Biology for CDK/cyclin lines)
Procedure, shortened: as §1

KIT D820E = target: T29, KIT D820E (Homo sapiens, UniProt P10721, D820E)
T29 construct: purchased Thermo Fisher Scientific SelectScreen (plus Nanosyn / Reaction Biology for CDK/cyclin lines)
Procedure, shortened: as §1

STK38 (NDR) = target: T30, STK38 (NDR) (Homo sapiens, UniProt Q15208)
T30 construct: purchased Thermo Fisher Scientific SelectScreen (plus Nanosyn / Reaction Biology for CDK/cyclin lines)
Procedure, shortened: as §1

MAP2K4 (MEK4) = target: T31, MAP2K4 (MEK4) (Homo sapiens, UniProt P45985)
T31 construct: purchased Thermo Fisher Scientific SelectScreen (plus Nanosyn / Reaction Biology for CDK/cyclin lines)
T31 sequence (P45985 whole entry): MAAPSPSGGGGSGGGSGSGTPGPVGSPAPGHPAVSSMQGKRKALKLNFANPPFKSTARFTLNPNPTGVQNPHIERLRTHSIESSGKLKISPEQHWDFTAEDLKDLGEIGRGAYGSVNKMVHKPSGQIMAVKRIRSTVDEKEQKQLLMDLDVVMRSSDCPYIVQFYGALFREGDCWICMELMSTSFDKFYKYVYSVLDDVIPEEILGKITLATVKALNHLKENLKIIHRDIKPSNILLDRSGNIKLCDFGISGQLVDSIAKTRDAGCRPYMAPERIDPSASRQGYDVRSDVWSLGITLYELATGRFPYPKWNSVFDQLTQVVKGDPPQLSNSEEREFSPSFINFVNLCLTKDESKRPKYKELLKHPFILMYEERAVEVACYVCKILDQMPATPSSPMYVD
Procedure, shortened: as §1

DDR2 T654M = target: T32, DDR2 T654M (Homo sapiens, UniProt Q16832, T654M)
T32 construct: purchased Thermo Fisher Scientific SelectScreen (plus Nanosyn / Reaction Biology for CDK/cyclin lines)
Procedure, shortened: as §1

MAPK10 (JNK3) = target: T33, MAPK10 (JNK3) (Homo sapiens, UniProt P53779)
T33 construct: purchased Thermo Fisher Scientific SelectScreen (plus Nanosyn / Reaction Biology for CDK/cyclin lines)
Procedure, shortened: as §1

ADCK3 = target: T34, ADCK3 (Homo sapiens, UniProt Q8NI60)
T34 construct: purchased Thermo Fisher Scientific SelectScreen (plus Nanosyn / Reaction Biology for CDK/cyclin lines)
Procedure, shortened: as §1

LATS2 = target: T35, LATS2 (Homo sapiens, UniProt Q9NRM7)
T35 construct: purchased Thermo Fisher Scientific SelectScreen (plus Nanosyn / Reaction Biology for CDK/cyclin lines)
Procedure, shortened: as §1

SIK3 = target: T36, SIK3 (Homo sapiens, UniProt Q9Y2K2)
T36 construct: purchased Thermo Fisher Scientific SelectScreen (plus Nanosyn / Reaction Biology for CDK/cyclin lines)
Procedure, shortened: as §1

ALK C1156Y = target: T37, ALK C1156Y (Homo sapiens, UniProt Q9UM73, C1156Y)
T37 construct: purchased Thermo Fisher Scientific SelectScreen (plus Nanosyn / Reaction Biology for CDK/cyclin lines)
T37 sequence (Q9UM73 19-1620 C1156Y): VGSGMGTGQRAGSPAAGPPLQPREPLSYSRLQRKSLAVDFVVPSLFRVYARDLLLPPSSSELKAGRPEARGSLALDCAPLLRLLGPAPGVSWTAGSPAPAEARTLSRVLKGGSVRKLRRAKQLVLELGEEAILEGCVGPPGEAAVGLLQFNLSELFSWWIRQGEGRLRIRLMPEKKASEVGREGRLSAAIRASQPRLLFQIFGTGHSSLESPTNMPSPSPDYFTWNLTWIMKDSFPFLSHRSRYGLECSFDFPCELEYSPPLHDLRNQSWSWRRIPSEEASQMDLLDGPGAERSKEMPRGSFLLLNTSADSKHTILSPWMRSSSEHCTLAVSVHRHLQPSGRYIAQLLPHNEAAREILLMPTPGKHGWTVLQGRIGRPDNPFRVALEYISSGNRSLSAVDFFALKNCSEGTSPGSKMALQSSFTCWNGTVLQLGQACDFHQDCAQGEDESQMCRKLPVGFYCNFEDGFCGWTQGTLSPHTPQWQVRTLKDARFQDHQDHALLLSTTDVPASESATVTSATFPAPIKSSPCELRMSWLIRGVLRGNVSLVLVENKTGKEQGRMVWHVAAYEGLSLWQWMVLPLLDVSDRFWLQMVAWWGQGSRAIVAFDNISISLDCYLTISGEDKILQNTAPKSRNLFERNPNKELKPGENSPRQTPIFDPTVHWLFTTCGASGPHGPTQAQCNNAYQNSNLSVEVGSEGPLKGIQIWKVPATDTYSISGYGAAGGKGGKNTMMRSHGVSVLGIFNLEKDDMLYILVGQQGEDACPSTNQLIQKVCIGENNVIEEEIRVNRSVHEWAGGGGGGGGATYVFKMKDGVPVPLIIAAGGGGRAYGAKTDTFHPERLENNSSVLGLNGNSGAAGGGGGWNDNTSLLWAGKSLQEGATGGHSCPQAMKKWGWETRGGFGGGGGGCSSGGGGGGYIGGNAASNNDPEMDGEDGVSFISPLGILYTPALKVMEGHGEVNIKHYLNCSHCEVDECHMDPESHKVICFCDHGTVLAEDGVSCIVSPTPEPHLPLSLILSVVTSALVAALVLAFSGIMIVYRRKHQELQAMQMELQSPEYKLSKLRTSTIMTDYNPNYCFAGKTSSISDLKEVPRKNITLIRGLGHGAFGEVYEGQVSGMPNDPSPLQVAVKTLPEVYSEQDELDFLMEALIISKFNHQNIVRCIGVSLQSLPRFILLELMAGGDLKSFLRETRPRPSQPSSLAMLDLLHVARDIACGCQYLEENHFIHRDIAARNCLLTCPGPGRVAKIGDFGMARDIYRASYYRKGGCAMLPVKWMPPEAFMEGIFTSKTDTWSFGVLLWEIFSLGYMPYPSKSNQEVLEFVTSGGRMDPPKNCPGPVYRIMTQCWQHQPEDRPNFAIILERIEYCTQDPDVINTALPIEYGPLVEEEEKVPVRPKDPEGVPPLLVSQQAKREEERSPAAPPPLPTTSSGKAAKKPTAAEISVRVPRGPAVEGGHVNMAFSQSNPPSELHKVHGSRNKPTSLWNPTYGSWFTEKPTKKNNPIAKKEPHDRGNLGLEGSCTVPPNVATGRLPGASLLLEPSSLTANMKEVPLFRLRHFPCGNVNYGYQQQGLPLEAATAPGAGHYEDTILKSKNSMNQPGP
Procedure, shortened: as §1

## NS(=O)(=O)c1ccc(Nc2ncc3cc4n(c3n2)C2(CCCCC2)C(=O)NN4)cc1 [INX-315]
HUNK
  inhibition at 0.1 µM: -5%
[1]
  inhibition at 0.1 µM: 7%
PLK4
  inhibition at 0.1 µM: 29%
CDK8/cyclin C
  inhibition at 0.1 µM: 0%
MAPK9 (JNK2)
  inhibition at 0.1 µM: 4%
CDK9/cyclin K
  inhibition at 0.1 µM: 38%
RAF1 (cRAF) Y340D Y341D
  inhibition at 0.1 µM: -2%
CDK3/cyclin E1
  inhibition at 0.1 µM: 88%
MAPK8 (JNK1)
  inhibition at 0.1 µM: 18%
MLCK (MLCK2)
  inhibition at 0.1 µM: 5%
MERTK (cMER) A708S
  inhibition at 0.1 µM: 14%
PKN2 (PRK2)
  inhibition at 0.1 µM: 11%
TESK2
  inhibition at 0.1 µM: -1%
TNIK
  inhibition at 0.1 µM: 12%
EPHA6
  inhibition at 0.1 µM: 10%
PRKACG (PRKAC gamma)
  inhibition at 0.1 µM: -12%
CDK11/cyclin C
  inhibition at 0.1 µM: 1%
STK32C (YANK3)
  inhibition at 0.1 µM: -1%
DDR1
  inhibition at 0.1 µM: 3%
EPHA3
  inhibition at 0.1 µM: -1%
STK17A (DRAK1)
  inhibition at 0.1 µM: 2%
STK33
  inhibition at 0.1 µM: 5%
ALK T1151_L1152insT
  inhibition at 0.1 µM: 6%
CDK2/cyclin E1
  inhibition at 0.1 µM: 98%
MAP4K1 (HPK1)
  inhibition at 0.1 µM: 17%
MAP3K11 (MLK3)
  inhibition at 0.1 µM: 13%
MAP3K5 (ASK1)
  inhibition at 0.1 µM: 10%
AXL R499C
  inhibition at 0.1 µM: 1%
KIT D820E
  inhibition at 0.1 µM: 12%
STK38 (NDR)
  inhibition at 0.1 µM: 0%
MAP2K4 (MEK4)
  inhibition at 0.1 µM: 17%
DDR2 T654M
  inhibition at 0.1 µM: 26%
MAPK10 (JNK3)
  inhibition at 0.1 µM: 12%
ADCK3
  inhibition at 0.1 µM: 49%
LATS2
  inhibition at 0.1 µM: 8%
SIK3
  inhibition at 0.1 µM: 2%
ALK C1156Y
  inhibition at 0.1 µM: 9%
